Assay results as given in patent US20220056019A1, “FARNESOID X RECEPTOR AGONISTS AND USES THEREOF” (Metacrine, Inc., priority 2018, published 2022).

target: T1, hFXR (Homo sapiens, UniProt Q96RI1); assay: In Vitro FXR Assay (TK): TK-ECRE-luc reporter in transfected CV-1 cells; type: cell-based; conditions: 18 hrs incubation, luminescence
T1 construct: expressed in transfected cells; host or cells: CV-1 cells
T1 sequence (Q96RI1 1-486): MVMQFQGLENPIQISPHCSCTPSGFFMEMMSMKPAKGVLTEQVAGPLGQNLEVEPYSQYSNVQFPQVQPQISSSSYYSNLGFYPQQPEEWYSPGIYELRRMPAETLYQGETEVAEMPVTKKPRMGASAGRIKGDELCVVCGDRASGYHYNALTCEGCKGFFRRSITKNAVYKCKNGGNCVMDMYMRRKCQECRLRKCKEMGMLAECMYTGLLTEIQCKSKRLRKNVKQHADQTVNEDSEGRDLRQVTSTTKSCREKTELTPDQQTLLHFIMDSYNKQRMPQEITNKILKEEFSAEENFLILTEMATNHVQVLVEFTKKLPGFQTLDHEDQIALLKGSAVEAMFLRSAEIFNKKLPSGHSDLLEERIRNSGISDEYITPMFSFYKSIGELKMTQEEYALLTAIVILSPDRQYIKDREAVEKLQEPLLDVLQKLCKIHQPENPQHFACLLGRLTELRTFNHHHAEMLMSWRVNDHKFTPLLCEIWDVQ
T1 sequence (P19793 1-462 partner): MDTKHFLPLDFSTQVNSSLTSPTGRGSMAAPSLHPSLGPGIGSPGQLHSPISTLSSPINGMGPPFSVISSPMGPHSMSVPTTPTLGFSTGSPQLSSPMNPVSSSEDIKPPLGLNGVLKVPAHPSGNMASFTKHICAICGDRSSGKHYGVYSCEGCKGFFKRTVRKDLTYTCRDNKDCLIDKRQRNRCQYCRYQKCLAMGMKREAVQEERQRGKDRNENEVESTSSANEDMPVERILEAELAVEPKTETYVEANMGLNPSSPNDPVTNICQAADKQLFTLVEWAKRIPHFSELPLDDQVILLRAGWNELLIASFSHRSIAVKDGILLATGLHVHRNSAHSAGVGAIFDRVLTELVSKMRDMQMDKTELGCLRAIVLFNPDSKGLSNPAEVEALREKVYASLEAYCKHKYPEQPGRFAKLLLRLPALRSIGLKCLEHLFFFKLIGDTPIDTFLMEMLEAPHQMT
Outline: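 Luciferase read-out from lysed CV-1 cells carrying transfected hFXR, hRXR, TK-ECRE-luc and pCMX-YFP. Test compounds, DMSO serial dilutions, were incubated with the cells for 18 h before lysis. Cells grew in charcoal-stripped serum medium.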

Structure (SMILES)	EC50 [nM]
CC(C)c1ccc(C23CCC(CN(c4cncc(-c5cnn(C(C)C)c5)n4)C(=O)[C@H]4CC[C@H](OC(=O)N5CC(O)C5)CC4)(CC2)CC3)cc1 [Compound 4.63, 4-((6-(1-Isopropyl-1H-pyrazol-4-yl)pyrazin-2-yl) ((4-(4-isopropylphenyl)bicyclo[2.2.2]octan-1-yl)methyl)carbamoyl)(trans-cyclohexyl) 3-hydroxyazetidine-1-carboxylate]	≤ 50
COc1ccc([C@H]2CC[C@H](CN(c3cccc(-n4cnc(C5CC5)n4)c3)C(=O)[C@H]3CC[C@H](OC(=O)N4CC(O)C4)CC3)CC2)cc1C [Compound 5, trans-4-((3-(3-Cyclopropyl-1H-1,2,4-triazol-1-yl)phenyl)((trans-4-(4-methoxy-3-methylphenyl)cyclohexyl)methyl)carbamoyl)cyclohexyl 3-hydroxyazetidine-1-carboxylate]	≤ 50
COc1ccc([C@H]2CC[C@H](CN(c3cccc(-c4cnn(C(C)C)c4)c3)C(=O)[C@H]3CC[C@H](OC(=O)NCC(C)(C)O)CC3)CC2)nc1C [Compound 5.01, trans-4-((3-(1-Isopropyl-1H-pyrazol-4-yl)phenyl)((trans-4-(5-methoxy-6-methylpyridin-2-yl)cyclohexyl)methyl)carbamoyl)cyclohexyl (2-hydroxy-2-methylpropyl) carbamate]	≤ 50
COc1ccc([C@H]2CC[C@H](CN(c3cccc(-c4cnn(C(C)C)c4)c3)C(=O)[C@H]3CC[C@H](OC(=O)N4CCN(C)CC4)CC3)CC2)cc1C#N [Compound 5.08, trans-4-((((trans)-4-(3-Cyano-4-methoxyphenyl)cyclohexyl)methyl)(3-(1-isopropyl-1H-pyrazol-4-yl)phenyl)carbamoyl)cyclohexyl4-methylpiperazine-1-carboxylate]	≤ 50
COc1ccc([C@H]2CC[C@H](CN(c3cccc(-c4cnn(C(C)C)c4)c3)C(=O)[C@H]3CC[C@H](OC(=O)N4CCN(C)CC4)CC3)CC2)cc1C [Compound 5.11, trans-4-((3-(1-Isopropyl-1H-pyrazol-4-yl)phenyl)((trans-4-(4-methoxy-3-methylphenyl)cyclohexyl)methyl)carbamoyl)cyclohexyl 4-methylpiperazine-1-carboxylate]	≤ 50
Cn1ccc2nc([C@H]3CC[C@H](CN(c4cccc(-c5cnc(C6CC6)s5)c4)C(=O)[C@H]4CC[C@H](OC(=O)N5CC(O)C5)CC4)CC3)ccc21 [Compound 5.13, trans-4-((3-(2-Cyclopropylthiazol-5-yl)phenyl)(((trans)-4-(1-methyl-1H-pyrrolo[3,2-b]pyridin-5-yl)cyclohexyl)methyl)carbamoyl) cyclohexyl 3-hydroxyazetidine-1-carboxylate]	≤ 50
O=C(O[C@H]1CC[C@H](C(=O)N(C[C@H]2CC[C@H](c3cc4ccccn4c3)CC2)c2cccc(-c3cnc(C4CC4)s3)c2)CC1)N1CC(O)C1 [Compound 5.14, trans-4-((3-(2-Cyclopropylthiazol-5-yl)phenyl)((trans-4-(indolizin-2-yl)cyclohexyl)methyl)carbamoyl) cyclohexyl 3-hydroxyazetidine-1-carboxylate]	≤ 50
CS(=O)(=O)c1ccc([C@H]2CC[C@H](CN(c3cccc(-c4cnc(C5CC5)s4)c3)C(=O)[C@H]3CC[C@H](OC(=O)N4CC(O)C4)CC3)CC2)cc1 [Compound 5.15, trans-4-((3-(2-Cyclopropylthiazol-5-yl)phenyl)((trans-4-(4-(methylsulfonyl)phenyl)cyclohexyl)methyl)carbamoyl)cyclohexyl 3-hydroxyazetidine-1-carboxylate]	50 to 1000

Second part, the compound after the results:

EC50 [nM]	Structure (SMILES)
≤ 50	COc1ccc([C@H]2CC[C@H](CN(c3cccc(-c4cnn(C(C)C)c4)c3)C(=O)[C@H]3CC[C@H](OC(=O)NCC(F)(F)CO)CC3)CC2)cc1C [Compound 5.02, trans-4-((3-(1-Isopropyl-1H-pyrazol-4-yl)phenyl)(((trans)-4-(4-methoxy-3-methylphenyl)cyclohexyl)methyl)carbamoyl)cyclohexyl (2,2-difluoro-3-hydroxypropyl)carbamate]
≤ 50	CCCNC(=O)O[C@H]1CC[C@H](C(=O)N(C[C@H]2CC[C@H](c3ccc(OC)c(C)c3)CC2)c2cccc(-c3cnn(C(C)C)c3)c2)CC1 [Compound 5.03, trans-4-((3-(1-Isopropyl-1H-pyrazol-4-yl)phenyl)(((trans)-4-(4-methoxy-3-methylphenyl)cyclohexyl)methyl)carbamoyl)cyclohexyl propylcarbamate]
≤ 50	COc1ccc([C@H]2CC[C@H](CN(c3cccc(-c4cnn(C(C)C)c4)c3)C(=O)[C@H]3CC[C@H](OC(=O)NCCCF)CC3)CC2)cc1C [Compound 5.04, trans-4-((3-(1-Isopropyl-1H-pyrazol-4-yl)phenyl)(((trans)-4-(4-methoxy-3-methylphenyl)cyclohexyl)methyl)carbamoyl)cyclohexyl (3-fluoropropyl)carbamate]
≤ 50	COc1ccc([C@H]2CC[C@H](CN(c3cccc(-c4cnn(C(C)C)c4)c3)C(=O)[C@H]3CC[C@H](OC(=O)NCC(C)F)CC3)CC2)cc1C (stereo partly drawn) [Compound 5.05, trans-4-((3-(1-Isopropyl-1H-pyrazol-4-yl)phenyl)(((trans)-4-(4-methoxy-3-methylphenyl)cyclohexyl)methyl)carbamoyl)cyclohexyl (2-fluoropropyl)carbamate]
≤ 50	COc1ccc([C@H]2CC[C@H](CN(c3cccc(-c4cnn(C(C)C)c4)c3)C(=O)[C@H]3CC[C@H](OC(=O)NCC(C)(F)F)CC3)CC2)cc1C [Compound 5.06, trans-4-((3-(1-Isopropyl-1H-pyrazol-4-yl)phenyl)(((trans)-4-(4-methoxy-3-methylphenyl)cyclohexyl)methyl)carbamoyl)cyclohexyl (2,2-difluoropropyl)carbamate]
≤ 50	COc1ccc([C@H]2CC[C@H](CN(c3cccc(-c4cnn(C(C)C)c4)c3)C(=O)[C@H]3CC[C@H](OC(=O)NC[C@H](F)CO)CC3)CC2)cc1C [Compound 5.07, trans-4-((3-(1-Isopropyl-1H-pyrazol-4-yl)phenyl)(((trans)-4-(4-methoxy-3-methylphenyl)cyclohexyl)methyl)carbamoyl)cyclohexyl ((S)-2-fluoro-3-hydroxypropyl) carbamate]
≤ 50	COc1ccc([C@H]2CC[C@H](CN(c3cccc(-c4cnn(C(C)C)c4)c3)C(=O)[C@H]3CC[C@H](OC(=O)NCC(C)(C)O)CC3)CC2)cc1C#N [Compound 5.09, trans-4-((((trans)-4-(3-Cyano-4-methoxyphenyl)cyclohexyl)methyl)(3-(1-isopropyl-1H-pyrazol-4-yl)phenyl)carbamoyl) cyclohexyl(2-hydroxy-2-methylpropyl)carbamate]
≤ 50	COc1ccc([C@H]2CC[C@H](CN(c3cccc(-c4cnn(C(C)C)c4)c3)C(=O)[C@H]3CC[C@H](OC(=O)NC(C)C)CC3)CC2)cc1C [Compound 5.10, trans-4-((3-(1-Isopropyl-1H-pyrazol-4-yl)phenyl)((trans-4-(4-methoxy-3-methylphenyl)cyclohexyl)methyl)carbamoyl)cyclohexyl isopropylcarbamate]
≤ 50	COc1ccc([C@H]2CC[C@H](CN(c3cccc(-c4cnn(C(C)C)c4)c3)C(=O)[C@H]3CC[C@H](OC(=O)NCC(C)(C)O)CC3)CC2)cc1C [Compound 5.12, trans-4-((3-(1-Isopropyl-1H-pyrazol-4-yl)phenyl)((trans-4-(4-methoxy-3-methylphenyl)cyclohexyl)methyl)carbamoyl)cyclohexyl (2-hydroxy-2-methylpropyl)carbamate]
≤ 50	COC(=O)N[C@H]1CC[C@H](C(=O)N(C[C@H]2CC[C@H](c3ccc(OC)c(C)c3)CC2)c2cccc(-c3cnn(C(C)C)c3)c2)CC1 [Compound 6, Methyl (trans-4-((3-(1-isopropyl-1H-pyrazol-4-yl)phenyl)((trans-4-(4-methoxy-3-methylphenyl)cyclohexyl)methyl)carbamoyl)cyclohexyl)carbamate]
≤ 50	CCOC(=O)N[C@H]1CC[C@H](C(=O)N(C[C@H]2CC[C@H](c3ccc(OC)c(C)c3)CC2)c2cccc(-c3cnn(C(C)C)c3)c2)CC1 [Compound 6.01, Ethyl (trans-4-((3-(1-isopropyl-1H-pyrazol-4-yl)phenyl)((trans-4-(4-methoxy-3-methylphenyl)cyclohexyl)meth-yl)carbamoyl)cyclohexyl)carbamate]
≤ 50	COc1ccc([C@H]2CC[C@H](CN(c3cccc(-c4cnn(C(C)C)c4)c3)C(=O)[C@H]3CC[C@H](NC(=O)OC(C)C)CC3)CC2)cc1C [Compound 6.02, Isopropyl (trans-4-((3-(1-isopropyl-1H-pyrazol-4-yl)phenyl)((trans-4-(4-methoxy-3-methylphenyl)cyclohexyl)meth-yl)carbamoyl)cyclohexyl)carbamate]
